Measured values as given in PubChem BioAssay (NCI).
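Cells were grown in 96-well plates and exposed to each compound for 48 hours at five concentrations; endpoints were interpolated linearly between bracketing concentrations, or set to the highest concentration if not reached. GI50 is the concentration that inhibits growth by half. TGI denotes the concentration required for complete inhibition of growth.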

How the values were obtained:
Assay in all cases: DTP human tumour cell line panel, 48 h
CCRF-CEM leukemia = system: CCRF-CEM leukemia
HCT-15 colon = system: HCT-15 colon
HL-60(TB) leukemia = system: HL-60(TB) leukemia
KM12 colon = system: KM12 colon
NCI-H226 lung = system: NCI-H226 lung
NCI-H23 lung = system: NCI-H23 lung
NCI-H522 lung = system: NCI-H522 lung
OVCAR-8 ovarian = system: OVCAR-8 ovarian
SF-295 CNS = system: SF-295 CNS
SK-MEL-28 melanoma = system: SK-MEL-28 melanoma
SNB-19 CNS = system: SNB-19 CNS

Structure (SMILES)	TGI (CCRF-CEM leukemia) [µM]	TGI (HCT-15 colon) [µM]	TGI (HL-60(TB) leukemia) [µM]	TGI (KM12 colon) [µM]	TGI (NCI-H226 lung) [µM]	TGI (NCI-H23 lung) [µM]	TGI (NCI-H522 lung) [µM]	TGI (OVCAR-8 ovarian) [µM]	TGI (SF-295 CNS) [µM]	TGI (SK-MEL-28 melanoma) [µM]	TGI (SNB-19 CNS) [µM]	GI50 (CCRF-CEM leukemia) [µM]	GI50 (KM12 colon) [µM]	GI50 (NCI-H226 lung) [µM]
S=C1NC2=C(CSC/C2=C\c2ccccc2)C(c2ccccc2)N1 (stereo unspecified)	> 100	> 100	44.5	> 100	> 100	> 100	> 100	> 100	89.1	> 100	> 100			
C(=C\c1ccccc1)/COc1ccccc1C(N1CCOCC1)n1nc2ccccc2n1 (stereo unspecified)	6.14	11.7	1.45	19.8	28.7	24.6	49.3	14	28.7	32.7	> 63.1			
CCOC(=O)NC(Nc1c(F)c(F)c(F)c(F)c1F)(C(F)(F)F)C(F)(F)F	> 100	> 100	> 100	> 100	> 100	> 100	> 100	> 100	> 100	> 100	> 100			
CN(C)c1ccc(Cc2cc3c(O)ccc(O)c3cc(Cc3ccc(N(C)C)cc3)c2=O)cc1	7.36	58	> 37.6	40	56.2	53.9	32.5	77.4	> 100	37.4	> 63.4			
CC(C)C1=C(O)C2=C(C(=O)C1=O)C1(C)CCCC(C)(C)C1C(O)C2OC=O (stereo unspecified)	8.47	16.4	18.7	24.7	20.2	20.5	27.5	20.1	29.3	13.1	31.7			
COc1ccc(N2C(=O)C3c4[nH]c5ccccc5c4C4CCCCCCCCCC4C3C2=O)cc1 (stereo unspecified)	> 10	> 10	> 10	> 10	> 10	> 10	> 10	> 10	> 10	> 10	> 10			
COP(=O)(OC)C(Nc1ccc(Cc2ccc(NC(c3ccco3)P(=O)(OC)OC)cc2)cc1)c1ccco1 (stereo unspecified)	> 100	> 100	> 100	> 100	> 100	44.5	> 100	> 100	82.2	> 100	71.3			
O=[N+]([O-])c1ccc2c(c1)c(N=NC(=S)Nc1ccc(Cl)cc1)c(O)n2CN1CCOCC1	28	11.4	11.5	24	23.7	9.44	23.2	23.4	18.3	26.6	20.8			
O=C(O)/C=C\C(=O)Nc1ccc(S(=O)(=O)c2ccc(NC(=O)/C=C\C(=O)O)cc2)cc1	> 100	> 100	> 100	> 100	> 100	> 100	> 100	> 100	> 100	> 100	> 100			
Cc1cc(O)c(-c2cc(O)c(C)cc2O)cc1O	3.8	> 51.1	3.88	27.5	46.4	38.9	12.2	16.7	31.2	22.7	40.2			
COc1cc(C(O)c2ccc3c(c2)OCO3)cc(OC)c1OC (stereo unspecified)	> 100	> 100	> 100	> 100	> 100	> 100	> 100	> 100	> 100	> 100	> 100			
CON(C)C(=O)C1CCCO1 (stereo unspecified)	> 100	> 100	> 100	> 100	> 100	> 100	> 100	> 100	> 100	> 100	> 100			
CCOC(=O)C1CCC(=O)N1C(=O)c1ccccc1Cl (stereo unspecified)	> 100	> 100	> 100	> 100	> 100	> 100	> 100	> 100	> 100	> 100	> 100			
O=S1(=O)c2cnccc2NC(=NCc2ccccc2)N1c1ccccc1	> 100	> 100	> 100	> 100	> 100	> 100	> 100	> 100	> 100	> 100	> 100			
COc1cc2[nH]c(-c3ccccc3)cc(=O)c2c(OC)c1OC	> 100	> 100	> 100	> 100	> 100	> 100	> 100	> 100	> 100	> 100	> 100			
c1ccc(C2CC(=NC3CCCCC3)Nc3ccccc3N2)cc1 (stereo unspecified)	> 100	> 100	> 100	> 100	> 100	> 100	78.1	> 100	> 100	> 100	> 100			
CC1=NNC(=O)C1C1CC(c2c[nH]c3ccccc23)=NN=C1Cl (stereo unspecified)	69.2	> 100	53.6	69.3	> 100	> 100	> 100	> 100	> 100	> 100	> 100			
N#Cc1c(-c2ccccc2)c2c([nH]c1=O)-c1cc([N+](=O)[O-])ccc1CCC2	94.3	61	72.3	> 100	71.6	71.1	97.8	> 100	63.1	> 100	> 100			
CN(C)c1cccc2c1C(=O)C=CC21c2ccc(N(C)C)c3c(N(C)C)ccc(c23)C(c2ccccc2)C1c1ccccc1 (stereo unspecified)	37.7	66.8	22.6	31.3	39.2	75.3	47.7	27.3	32.7	37.5	44.4			
O=C1C(C(O)(C(F)(F)F)C(F)(F)F)CCC1C(O)(C(F)(F)F)C(F)(F)F (stereo unspecified)	> 100	> 100	6.44	37.3	4.44	6.75	18.9	> 83.6	21	> 73.2	> 100			
C[C@H]1[C@H](C)CC[C@]2(C(=O)OC3OC(CO)C(O)C(O)C3O)CC[C@]3(C)C(=CC[C@@H]4[C@@]5(C)C[C@H]6OC(=O)c7cc(O)c(O)c(O)c7-c7c(cc(O)c(O)c7O)C(=O)O[C@@H]6C(CO)(CO)[C@@H]5CC[C@]43C)[C@H]12 (stereo partly specified)	> 92.3	> 100	> 100	> 100	> 100	> 100	38.6	> 100	> 100	> 100	> 100			
COc1cc(C2c3cc4c(cc3[C@@H](Nc3ccc5c(c3)OCO5)C3COC(=O)[C@H]23)OCO4)cc(OC)c1O (stereo partly specified)	5.37	2.15	0.977	6.91	2.06	4.07	4.49	> 20.5	5.3	> 95.3	30.1			
Nc1ccc(-c2nn3c(COc4ccc(Cl)cc4)nnc3s2)cc1	> 100	> 100	> 100	> 100	> 100	> 100	> 100	> 100	> 100	> 100	> 100	10	99.5	7.19
CSc1nc2c(ncn2C2OC(CO)C(O)C(O)C2O)c(=O)[nH]1 (stereo unspecified)	> 100	> 100	> 100	> 100	> 100	> 100	> 100	> 100	> 100	> 100	> 100			
CCNc1ncnc2sc(SCc3ccccc3)nc12	> 100	> 100	56.4	> 100	> 100	> 100	> 100	> 100	> 100	> 100	> 100			
CC(C)/C(Cl)=N/OC(=O)Nc1ccc(OC(F)(F)F)cc1	5.08	18.8	5.76	30.3	23.5	30.9	2.81	33.5	33.1	26.6	31.6			
CCN(CC)CCO/N=C1\CC[C@H]2[C@@H]3CCc4cc(OC)ccc4[C@H]3CC[C@]12C	4.86	1.94	3.12	5.86	4.69	18.6	7.02	7.95	3.78	1.28	25			
O=C(O)CN(CC(=O)O)C(C(=O)O)c1ccccc1 (stereo unspecified)	> 100	> 100	> 100	> 100	> 100	> 100	> 100	> 100	> 100	> 100	> 100			
